From PubChem BioAssay (NCI)
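GI50 is the concentration that inhibits growth by half. TGI: concentration producing complete growth inhibition.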

Key:
Assay in all cases: NCI anticancer screen, dose series, 384-well format
SK-MEL-2 melanoma = tested on: SK-MEL-2 melanoma
OVCAR-8 ovarian = tested on: OVCAR-8 ovarian
SK-MEL-5 melanoma = tested on: SK-MEL-5 melanoma
MDA-MB-468 breast = tested on: MDA-MB-468 breast
ACHN renal = tested on: ACHN renal
HS 578T breast = tested on: HS 578T breast
NCI-H23 lung = tested on: NCI-H23 lung
NCI-H322M lung = tested on: NCI-H322M lung
SNB-19 CNS = tested on: SNB-19 CNS
UACC-62 melanoma = tested on: UACC-62 melanoma
SN12C renal = tested on: SN12C renal
HCT-15 colon = tested on: HCT-15 colon
NCI-H460 NSCLC = tested on: NCI-H460 NSCLC
RXF 393 renal = tested on: RXF 393 renal
SF-268 CNS = tested on: SF-268 CNS
TK-10 renal = tested on: TK-10 renal
HOP-92 NSCLC = tested on: HOP-92 NSCLC
EKVX NSCLC = tested on: EKVX NSCLC
OVCAR-4 ovarian = tested on: OVCAR-4 ovarian
OVCAR-3 ovarian = tested on: OVCAR-3 ovarian
HCT-116 colon = tested on: HCT-116 colon
OVCAR-5 ovarian = tested on: OVCAR-5 ovarian
U251 glioblastoma = tested on: U251 glioblastoma
CAKI-1 renal = tested on: CAKI-1 renal
MDA-MB-435 melanoma = tested on: MDA-MB-435 melanoma
KM12 colon = tested on: KM12 colon
UACC-257 melanoma = tested on: UACC-257 melanoma
SNB-75 CNS = tested on: SNB-75 CNS
M14 melanoma = tested on: M14 melanoma
DU-145 prostate = tested on: DU-145 prostate
BT-549 breast = tested on: BT-549 breast
SK-MEL-28 melanoma = tested on: SK-MEL-28 melanoma
PC-3 prostate = tested on: PC-3 prostate
NCI-H226 lung = tested on: NCI-H226 lung
HT29 colon = tested on: HT29 colon
MDA-MB-231 breast = tested on: MDA-MB-231 breast
HL-60(TB) leukemia = tested on: HL-60(TB) leukemia
UO-31 renal = tested on: UO-31 renal
IGROV1 ovarian = tested on: IGROV1 ovarian
K-562 leukemia = tested on: K-562 leukemia
SW-620 colon = tested on: SW-620 colon
HOP-62 NSCLC = tested on: HOP-62 NSCLC
MCF7 breast = tested on: MCF7 breast
A549 NSCLC = tested on: A549 NSCLC
NCI-H522 lung = tested on: NCI-H522 lung
SK-OV-3 ovarian = tested on: SK-OV-3 ovarian
MALME-3M melanoma = tested on: MALME-3M melanoma
T-47D breast = tested on: T-47D breast
MOLT-4 leukemia = tested on: MOLT-4 leukemia
A498 renal = tested on: A498 renal
SF-295 CNS = tested on: SF-295 CNS
SF-539 CNS = tested on: SF-539 CNS
SR leukemia = tested on: SR leukemia
COLO 205 colon = tested on: COLO 205 colon
786-0 renal = tested on: 786-0 renal

In the case of `CCOC(=O)[C@@H](N)CCC(=O)N[C@@H](CSCc1ccccc1)C(=O)N[C@@H](C(=O)OCC)c1ccccc1`, the GI50 (SK-MEL-2 melanoma) is reported as 15.5 µM, the TGI (SK-MEL-2 melanoma) is reported as 29 µM and the GI50 (OVCAR-8 ovarian) is reported as 10.8 µM. The TGI (OVCAR-8 ovarian) was 22.8 µM, the GI50 (SK-MEL-5 melanoma) was 15.3 µM and the TGI (SK-MEL-5 melanoma) was 29 µM. It also gave a GI50 (MDA-MB-468 breast) of 5.45 µM, a TGI (MDA-MB-468 breast) of 17.2 µM and a GI50 (ACHN renal) of 8.55 µM. The TGI (ACHN renal) was 20.9 µM, the GI50 (HS 578T breast) was 15.3 µM and the TGI (HS 578T breast) was 28.6 µM. It also gave a GI50 (NCI-H23 lung) of 16.2 µM, a TGI (NCI-H23 lung) of 32.5 µM and a GI50 (NCI-H322M lung) of 18.1 µM. It also gave a TGI (NCI-H322M lung) of 60 µM, a GI50 (SNB-19 CNS) of 15.7 µM and a TGI (SNB-19 CNS) of 30.3 µM. For the same molecule, the GI50 (UACC-62 melanoma) was 10.5 µM, the TGI (UACC-62 melanoma) was 22.4 µM and the GI50 (SN12C renal) was 15 µM. It also gave a TGI (SN12C renal) of 28.3 µM, a GI50 (HCT-15 colon) of 20.1 µM and a TGI (HCT-15 colon) of 40.8 µM. For the same molecule, the GI50 (NCI-H460 NSCLC) was 7.59 µM, the TGI (NCI-H460 NSCLC) was 20.1 µM and the GI50 (RXF 393 renal) was 10.8 µM. For the same molecule, the TGI (RXF 393 renal) was 22.7 µM, the GI50 (SF-268 CNS) was 10.5 µM and the TGI (SF-268 CNS) was 22.4 µM. It also gave a GI50 (TK-10 renal) of 14.5 µM, a TGI (TK-10 renal) of 27.9 µM and a GI50 (HOP-92 NSCLC) of 10.4 µM. The TGI (HOP-92 NSCLC) was 22.2 µM, the GI50 (EKVX NSCLC) was 20.4 µM and the TGI (EKVX NSCLC) was 43.6 µM. The GI50 (OVCAR-4 ovarian) was 16 µM, the TGI (OVCAR-4 ovarian) was 31.4 µM and the GI50 (OVCAR-3 ovarian) was 13.5 µM. It also gave a TGI (OVCAR-3 ovarian) of 26.4 µM, a GI50 (HCT-116 colon) of 5.21 µM and a TGI (HCT-116 colon) of 17 µM. It also gave a GI50 (OVCAR-5 ovarian) of 32.3 µM, a TGI (OVCAR-5 ovarian) of over 100 µM and a GI50 (U251 glioblastoma) of 11.2 µM. The TGI (U251 glioblastoma) was 23.5 µM, the GI50 (CAKI-1 renal) was 8.03 µM and the TGI (CAKI-1 renal) was 20.4 µM. The GI50 (MDA-MB-435 melanoma) was 17.3 µM, the TGI (MDA-MB-435 melanoma) was 31.2 µM and the GI50 (KM12 colon) was 6.17 µM. The TGI (KM12 colon) was 18.5 µM, the GI50 (UACC-257 melanoma) was 16.9 µM and the TGI (UACC-257 melanoma) was 30.6 µM. The GI50 (SNB-75 CNS) was 12.2 µM, the TGI (SNB-75 CNS) was 24.7 µM and the GI50 (M14 melanoma) was 16.8 µM. The TGI (M14 melanoma) was 30.4 µM, the GI50 (DU-145 prostate) was 19.2 µM and the TGI (DU-145 prostate) was 45.3 µM. It also gave a GI50 (BT-549 breast) of 17.5 µM, a TGI (BT-549 breast) of 31.3 µM and a GI50 (SK-MEL-28 melanoma) of 16.5 µM. It also gave a TGI (SK-MEL-28 melanoma) of 30.1 µM, a GI50 (PC-3 prostate) of 14.8 µM and a TGI (PC-3 prostate) of 28.1 µM. It also gave a GI50 (NCI-H226 lung) of 11.8 µM, a TGI (NCI-H226 lung) of 25.6 µM and a GI50 (HT29 colon) of 8.24 µM. It also gave a TGI (HT29 colon) of 20.7 µM, a GI50 (MDA-MB-231 breast) of 11.9 µM and a TGI (MDA-MB-231 breast) of 24.2 µM. For the same molecule, the GI50 (HL-60(TB) leukemia) was 18.5 µM, the TGI (HL-60(TB) leukemia) was 32.6 µM and the GI50 (UO-31 renal) was 38.6 µM. It also gave a TGI (UO-31 renal) of over 100 µM, a GI50 (IGROV1 ovarian) of 13 µM and a TGI (IGROV1 ovarian) of 25.9 µM. For the same molecule, the GI50 (K-562 leukemia) was 10.6 µM, the TGI (K-562 leukemia) was 22.7 µM and the GI50 (SW-620 colon) was 9.33 µM. The TGI (SW-620 colon) was 21.4 µM, the GI50 (HOP-62 NSCLC) was 9.1 µM and the TGI (HOP-62 NSCLC) was 24 µM. The GI50 (MCF7 breast) was 5.51 µM, the TGI (MCF7 breast) was 19 µM and the GI50 (A549 NSCLC) was 25.3 µM. It also gave a TGI (A549 NSCLC) of over 100 µM, a GI50 (NCI-H522 lung) of 14.4 µM and a TGI (NCI-H522 lung) of 27.6 µM. The GI50 (SK-OV-3 ovarian) was 13.9 µM, the TGI (SK-OV-3 ovarian) was 26.9 µM and the GI50 (MALME-3M melanoma) was 16.4 µM. It also gave a TGI (MALME-3M melanoma) of 30.1 µM, a GI50 (T-47D breast) of 15.5 µM and a TGI (T-47D breast) of 29 µM. It also gave a GI50 (MOLT-4 leukemia) of 2.01 µM, a TGI (MOLT-4 leukemia) of 3.57 µM and a GI50 (A498 renal) of 11.6 µM. It also gave a TGI (A498 renal) of 24.1 µM, a GI50 (SF-295 CNS) of 13.1 µM and a TGI (SF-295 CNS) of 26.1 µM. For the same molecule, the GI50 (SF-539 CNS) was 12.5 µM, the TGI (SF-539 CNS) was 25.1 µM and the GI50 (SR leukemia) was 1.82 µM. It also gave a TGI (SR leukemia) of 3.43 µM, a GI50 (COLO 205 colon) of 11.5 µM and a TGI (COLO 205 colon) of 23.8 µM. The GI50 ([…]-0 renal) was 12.3 µM and the TGI (786-0 renal) was 24.8 µM.
